Data published in US6503727B1, “Process for the preparation of an antibiotic” (Gist-Brocades, B.V., priority 1995, dated 2003).
Read-outs that look alike come from different tables or passages of the source.

Columns and labels:
[1] = final pH 4.5, 2 hours, 20° C.
Description: (§1) The following synthetic mixtures were prepared, with a final pH of 4.5:
(§2) After 2 hours' incubation in a shaker incubator (20° C.) samples were taken and the dissolved concentration of each of these components was determined.

[2] = Effect of PGA and AMPI on the solubility of 6-APA (dissolved concentrations in synthetic mixtures); conditions: final pH 4.5, 2 hours, 20° C.
Description: as §1, §2

[3] = Effect of PGA and CEX on the solubility of 7-ADCA (dissolved concentrations in synthetic mixtures); conditions: final pH 4.5, 2 hours, 20° C.
Description: Effect of PGA and PEX on the Solubility of 7-ADCA
The following synthetic mixtures were prepared, with a final pH of 4.5;
3% (m/m) 7-ADCA and 3.0% (m/m) CEX.H2O in water.
as §2

[4] = Example II Mixture 2: 3% (m/m) 6-APA and 0.4% (m/m) PG in water
[5] = Example II Mixture 3: 3% (m/m) 6-APA, 0.4% (m/m) PG and 1.5% (m/m) PGA in water
[6] = Example II Mixture 4: 3% (m/m) 6-APA, 0.4% (m/m) PG, 1.5% (m/m) PGA and 3.0% (m/m) AMPI in water
[7] = Example I Mixture 3: 3% (m/m) 7-ADCA, 0.4% (m/m) PG and 1.5% (m/m) PGA in water
[8] = Example I Mixture 4: 3% (m/m) 7-ADCA, 0.4% (m/m) PC, 1.5% (m/m) PGA and 3.0% (m/m) CEX.H2O in water

In the case of `CC1(C)S[C@@H]2[C@H](N)C(=O)N2[C@H]1C(=O)O` [6-APA, 6-aminopenicillanic acid], the “Dissolved Concentrations” value ([1]; Example III Mixture 1: 3% (m/m) 6-APA in water) is reported as 0.35 % (m/m), the “Dissolved Concentrations” value ([1]; Example III Mixture 2: 3% (m/m) 6-APA and 0.5% (m/m) HPG in water) is reported as 0.35 % (m/m) and the “Dissolved Concentrations” value ([1]; Example III Mixture 3: 3% (m/m) 6-APA, 0.5% (m/m) HPG and 1.5% (m/m) HPGA in water) is reported as 0.40 % (m/m). For the same compound, the “Dissolved Concentrations” value ([1]; Example III Mixture 4: 3% (m/m) 6-APA, 0.5% (m/m) HPG and 2.0% HPG-Me in water) was 0.50 % (m/m), the “Dissolved Concentrations” value ([1]; Example III Mixture 5: 3% (m/m) 6-APA, 0.5% (m/m) HPG, 1.5% (m/m) HPGA and 3.0% AMOX in water) was 1.40 % (m/m) and the “Dissolved Concentrations” value ([1]; Example III Mixture 6: 3.0% (m/m) 6-APA, 0.5% (m/m) HPG, 2.0% (m/m) HPG-Me and 3.0% (m/m) AMOX in water) was 2.15 % (m/m). For the same compound, the dissolved concentration ([2]; Example II Mixture 1: 3% (m/m) 6-APA in water) was 0.35, the dissolved concentration [2, 4] was 0.40 and the dissolved concentration [2, 5] was 0.40. For the same compound, the dissolved concentration [2, 6] was 0.90.

With `N[C@@H](C(=O)O)c1ccccc1` [PG, D-phenyl glycine] the Dissolved Concentrations ([3]; Example I Mixture 2: 3% (m/m) 7-ADCA and 0.4% (m/m) PG in water) was 0.40 % (m/m), the Dissolved Concentrations [3, 7] was 0.40 % (m/m) and the Dissolved Concentrations [3, 8] was 0.40 % (m/m). The dissolved concentration [2, 4] was 0.4, the dissolved concentration [2, 5] was 0.4 and the dissolved concentration [2, 6] was 0.4.

In the case of `NC(=O)[C@H](N)c1ccccc1` [PGA, D-phenyl glycine amide], the Dissolved Concentrations [3, 7] is reported as 1.5 % (m/m), the Dissolved Concentrations [3, 8] is reported as 1.5 % (m/m) and the dissolved concentration [2, 5] is reported as 1.5. For the same compound, the dissolved concentration [2, 6] was 1.5.
